In brackets after ≈: the same amount, converted by molar mass.
How the values were obtained:
Rhodotorula mucilaginosa = experiment: Antimicrobial activity against Rhodotorula piliminae using potato dextrose broth as growth medium and diluent; assay type: functional
Botrytis cinerea = experiment: Antimicrobial activity against Botrytis cinerea using potato dextrose broth as growth medium and diluent; assay type: functional
Fusarium graminearum [1] = experiment: Antimicrobial activity against Fusarium graminearum B4-5A using potato dextrose broth as growth medium and diluent; assay type: functional
Fusarium graminearum [2] = experiment: Antimicrobial activity against Fusarium graminearum B4-5A using RPMI medium by microbroth dilution assay; assay type: functional
Rhizopus stolonifer = experiment: Antimicrobial activity against Rhizopus stolonifer using potato dextrose broth as growth medium and diluent; assay type: functional
[3] = Cytotoxic activity against human C8161.9 cells; assay type: cell-based
Fusarium oxysporum = experiment: Antimicrobial activity against Fusarium oxysporum using potato dextrose broth as growth medium and diluent; assay type: functional
[4] = Selectivity index, ratio of IC50 for human C8161.9 cells to MIC for Saccharomyces cerevisiae
Fusarium graminearum [5] = experiment: Antimicrobial activity against Fusarium graminearum […] in wheat assessed as reduction in Fusarium head blight disease incidence at 1080 ug/ml pre-treated 24 hrs before infection; assay type: functional
Fusarium graminearum [6] = experiment: Antimicrobial activity against Fusarium graminearum B4-5A infection in wheat assessed as reduction in spikelet infection rate at 30 ug/ml pre-treated 24 hrs before infection; assay type: functional
Fusarium graminearum [7] = experiment: Antimicrobial activity against Fusarium graminearum B4-5A infecrtion in wheat assessed as Fusarium head blight disease incidence at 5 ug/ml pre-treated 24 hrs before infection (reference value: 61%); assay type: functional
[8] = Induction of hemolysis in sheep erythrocytes at 28 ug/ml; assay type: cell-based, Ovis aries, Erythrocyte; settings: read-out: Activity
[9] = Selectivity index, ratio of IC50 for mouse NIH/3T3 cells to MIC for Saccharomyces cerevisiae
[10] = Induction of hemolysis in sheep erythrocytes at 313 ug/ml; assay type: cell-based, Ovis aries, Erythrocyte; settings: read-out: Activity
[11] = test system: Cladosporium cladosporioides; experiment: Antimicrobial activity against Cladosporium cladosporioides using potato dextrose broth as growth medium and diluent; assay type: functional
Phoma = experiment: Antimicrobial activity against Phoma spp. using potato dextrose broth as growth medium and diluent; assay type: functional
Fusarium graminearum [12] = experiment: Antimicrobial activity against Fusarium graminearum B4-5A infecrtion in wheat assessed as Fusarium head blight disease incidence at 30 ug/ml pre-treated 24 hrs before infection (reference value: 61%); assay type: functional
Fusarium graminearum [13] = experiment: Antimicrobial activity against Fusarium graminearum B4-5A infection in wheat assessed as reduction in spikelet infection rate at 5 ug/ml pre-treated 24 hrs before infection; assay type: functional
[14] = Cytotoxic activity against mouse NIH/3T3 cells; assay type: cell-based, NIH3T3
Ulocladium = experiment: Antimicrobial activity against Ulocladium spp. using potato dextrose broth as growth medium and diluent; assay type: functional; settings: Alternaria sect. Ulocladium
Staphylococcus aureus [15] = experiment: Antimicrobial activity against Staphylococcus aureus using potato dextrose broth as growth medium and diluent; assay type: functional
Curvularia brachyspora = experiment: Antimicrobial activity against Curvularia brachyspora using potato dextrose broth as growth medium and diluent; assay type: functional
Escherichia coli [16] = experiment: Antimicrobial activity against Escherichia coli ATCC 25922 using potato dextrose broth as growth medium and diluent; assay type: functional
Fusarium graminearum [17] = experiment: Antimicrobial activity against Fusarium graminearum B4-5A infecrtion in wheat assessed as Fusarium head blight disease incidence at 180 ug/ml pre-treated 24 hrs before infection (reference value: 61%); assay type: functional
Fusarium graminearum [18] = experiment: Antimicrobial activity against Fusarium graminearum B4-5A infecrtion in wheat assessed as Fusarium head blight disease incidence at 1080 ug/ml pre-treated 24 hrs before infection (reference value: 61%); assay type: functional
Verticillium = experiment: Antimicrobial activity against Verticillium spp. using potato dextrose broth as growth medium and diluent; assay type: functional
Globisporangium ultimum = experiment: Antimicrobial activity against Pythium ultimum using potato dextrose broth as growth medium and diluent; assay type: functional
Microdochium nivale = experiment: Antimicrobial activity against Microdochium nivale using potato dextrose broth as growth medium and diluent; assay type: functional
Candida albicans = experiment: Antimicrobial activity against Candida albicans 10231 using potato dextrose broth as growth medium and diluent; assay type: functional
Enterococcus faecalis = experiment: Antimicrobial activity against vancomycin-resistant Enterococcus faecalis ATCC 1299 assessed as inhibition of bacterial growth incubated at 35 degC for 12 to 18 hrs; assay type: functional
Staphylococcus aureus [19] = experiment: Antimicrobial activity against Staphylococcus aureus ATCC 25923 assessed as inhibition of bacterial growth incubated at 35 degC for 12 to 18 hrs; assay type: functional
Pseudomonas aeruginosa = experiment: Antimicrobial activity against Pseudomonas aeruginosa ATCC 27853 assessed as inhibition of bacterial growth incubated at 35 degC for 12 to 18 hrs; assay type: functional
Staphylococcus aureus [20] = experiment: Antimicrobial activity against methicillin-resistant Staphylococcus aureus ATCC 33591 assessed as inhibition of bacterial growth incubated at 35 degC for 12 to 18 hrs; assay type: functional
Escherichia coli [21] = experiment: Antimicrobial activity against Escherichia coli ATCC 25922 assessed as inhibition of bacterial growth incubated at 35 degC for 12 to 18 hrs; assay type: functional
[22] = Induction of hemolysis in sheep erythrocytes incubated at 37 degC for 60 mins; assay type: cell-based, Ovis aries, Erythrocyte

Work on `CC1(C)CCC(Cc2ccc(Cl)cc2)C1(O)Cn1cncn1` (stereo not drawn) [METCONAZOLE] yielded an MIC (Rhodotorula mucilaginosa) of 15.6 µg/mL (≈ 48.8 µM), an MIC (Botrytis cinerea) of 7.8 µg/mL (≈ 24.4 µM) and an MIC (Fusarium graminearum [1]) of 3.9 µg/mL (≈ 12.2 µM).
`CCCCCCCCSCC[C@H]1O[C@H](O[C@@H]2[C@@H](O)[C@H](O[C@H]3O[C@H](CN)[C@@H](O)[C@H](O)[C@H]3N)[C@@H](N)C[C@H]2N)[C@H](O)[C@@H](N)[C@@H]1O` gave an MIC (Fusarium graminearum [2]) of 15.6 µg/mL (≈ 24.9 µM).
With `CCCCO[C@H]1[C@H](N)[C@@H](O)[C@@H](O[C@@H]2[C@@H](O)[C@H](O[C@H]3O[C@H](CN)[C@@H](O)[C@H](O)[C@H]3N)[C@@H](N)C[C@H]2N)O[C@@H]1C` the MIC (Fusarium graminearum [2]) was > 500 µg/mL and the MIC (Fusarium graminearum [1]) was > 500 µg/mL.
In the case of `Cc1ccc(S(=O)(=O)OCC[C@H]2O[C@H](O[C@@H]3[C@@H](O)[C@H](O[C@H]4O[C@H](CN)[C@@H](O)[C@H](O)[C@H]4O)[C@@H](N)C[C@H]3N)[C@H](O)[C@@H](N)[C@@H]2O)cc1`, the MIC (Fusarium graminearum [2]) is reported as > 500 µg/mL.
In the case of `CCCCCCCCO[C@H]1[C@H](N)[C@@H](O)[C@@H](O[C@@H]2[C@@H](O)[C@H](O[C@H]3O[C@H](CN)[C@@H](O)[C@H](O)[C@H]3N)[C@@H](N)C[C@H]2N)O[C@@H]1C`, the MIC (Rhizopus stolonifer) is reported as 31.3 µg/mL (≈ 54 µM), the MIC (Rhodotorula mucilaginosa) is reported as 7.8 µg/mL (≈ 13.5 µM) and the IC50 ([3]; Homo sapiens) is reported as > 250 µg/mL. The Activity ([3]; human) was “Dose-dependent effect”, the MIC (Fusarium oxysporum) was 7.8 µg/mL (≈ 13.5 µM) and the “Selectivity Index” value [4] was 10. For the same molecule, the inhibition at 1080 µg/mL (Fusarium graminearum [5]) was 82%, the inhibition at 30 µg/mL (Fusarium graminearum [6]) was 49% and the MIC (Fusarium graminearum [2]) was 31.5 µg/mL (≈ 54.3 µM). The Activity (Fusarium graminearum [7]) was 76%, the hemolysis at 28 ug/ml [8] was 2% and the “Selectivity Index” value [9] was 10. For the same molecule, the MIC (Botrytis cinerea) was 31.3 µg/mL (≈ 54 µM), the hemolysis at 313 ug/ml [10] was > 20% and the MIC [11] was 31.3 µg/mL (≈ 54 µM). The MIC (Phoma) was 31.3 µg/mL (≈ 54 µM), the Activity (Fusarium graminearum [12]) was 70% and the inhibition at 5 µg/mL (Fusarium graminearum [13]) was 29%. The IC50 ([14]; Mus musculus, NIH3T3) was > 250 µg/mL, the Activity ([14]; mouse, nih3t3) was “Dose-dependent effect” and the MIC (Fusarium graminearum [1]) was 7.8 µg/mL (≈ 13.5 µM). For the same molecule, the MIC (Ulocladium) was 7.8 µg/mL (≈ 13.5 µM), the MIC (Staphylococcus aureus [15]) was 62.5 µg/mL (≈ 108 µM) and the MIC (Curvularia brachyspora) was 31.3 µg/mL (≈ 54 µM). For the same molecule, the MIC (Escherichia coli [16]) was 250 µg/mL (≈ 431 µM), the Activity (Fusarium graminearum [17]) was 76% and the Activity (Fusarium graminearum [18]) was 80%. The MIC (Verticillium) was 15.2 µg/mL (≈ 26.2 µM), the MIC (Globisporangium ultimum) was 15.6 µg/mL (≈ 26.9 µM) and the MIC (Microdochium nivale) was 3.9 µg/mL (≈ 6.73 µM). For the same molecule, the MIC (Candida albicans) was 31.3 µg/mL (≈ 54 µM).
Work on `CCCCCCCCCCC(=O)OCC[C@H]1O[C@H](O[C@@H]2[C@@H](O)[C@H](O[C@H]3O[C@H](CN)[C@@H](O)[C@H](O)[C@H]3N)[C@@H](N)C[C@H]2N)[C@H](O)[C@@H](N)[C@@H]1O` yielded an MIC (Fusarium graminearum [2]) of 62.5 µg/mL (≈ 93.9 µM).
In the case of `CCCCCCC(=O)NC[C@H]1O[C@@H](O[C@@H]2[C@@H](O)[C@H](N)C[C@H](N)[C@H]2O[C@H]2O[C@H](CN)[C@@H](O)[C@H](O)[C@H]2N)[C@H](O)[C@@H]1O[C@H]1O[C@@H](CN)[C@@H](O)[C@H](O)[C@H]1N`, the MIC (Enterococcus faecalis) is reported as ≥ 250 µg/mL, the MIC (Fusarium graminearum [2]) is reported as 62.5 µg/mL (≈ 86.1 µM) and the MIC (Staphylococcus aureus [19]) is reported as 2 µg/mL (≈ 2.76 µM). For the same molecule, the MIC (Pseudomonas aeruginosa) was ≥ 250 µg/mL, the MIC (Staphylococcus aureus [20]) was 125 µg/mL (≈ 172 µM) and the MIC (Escherichia coli [21]) was 16 µg/mL (≈ 22 µM).
With `NC[C@@H]1O[C@@H](O[C@H]2[C@H](O)[C@@H](O[C@H]3O[C@H](CO)[C@@H](O)[C@H](N)[C@H]3O)[C@H](N)C[C@@H]2N)[C@@H](O)[C@H](O)[C@H]1O` [KANAMYCIN A] the MIC (Fusarium graminearum [2]) was > 500 µg/mL.
For `CCCCCCCCCCCCCCCCCC(=O)NC[C@H]1O[C@@H](O[C@@H]2[C@@H](O)[C@H](N)C[C@H](N)[C@H]2O[C@H]2O[C@H](CN)[C@@H](O)[C@H](O)[C@H]2N)[C@H](O)[C@@H]1O[C@H]1O[C@@H](CN)[C@@H](O)[C@H](O)[C@H]1N`, the MIC (Enterococcus faecalis) was 8 µg/mL (≈ 9.09 µM), the MIC (Fusarium graminearum [2]) was 125 µg/mL (≈ 142 µM) and the IC90 at 1 h [22] was > 1000 µg/mL. For the same molecule, the MIC (Staphylococcus aureus [19]) was 2 µg/mL (≈ 2.27 µM), the MIC (Pseudomonas aeruginosa) was 8 µg/mL (≈ 9.09 µM) and the MIC (Staphylococcus aureus [20]) was 2 µg/mL (≈ 2.27 µM). The MIC (Escherichia coli [21]) was 4 µg/mL (≈ 4.54 µM).
`CCCCCCCCCCCC(=O)NC[C@H]1O[C@@H](O[C@@H]2[C@@H](O)[C@H](N)C[C@H](N)[C@H]2O[C@H]2O[C@H](CN)[C@@H](O)[C@H](O)[C@H]2N)[C@H](O)[C@@H]1O[C@H]1O[C@@H](CN)[C@@H](O)[C@H](O)[C@H]1N` showed an MIC (Enterococcus faecalis) of 64 µg/mL (≈ 80.4 µM), an MIC (Staphylococcus aureus [19]) of 8 µg/mL (≈ 10.1 µM) and an MIC (Pseudomonas aeruginosa) of 16 µg/mL (≈ 20.1 µM). For the same molecule, the MIC (Staphylococcus aureus [20]) was 16 µg/mL (≈ 20.1 µM) and the MIC (Escherichia coli [21]) was 16 µg/mL (≈ 20.1 µM).
